Patent publication US20250320206A1, “STAT6 DEGRADERS” (Gilead Sciences, Inc., priority 2024, published 2025)

What was measured:
[1] = system: Eotaxin-3 release in human whole blood stimulated with IL-4; experiment: Human Whole Blood Eotaxin-3 Assay (IL-4 stimulated eotaxin-3 release); format: cell-based; conditions: IL-4 stimulation, 48 h, values given for compounds with >80% Emax, geometric mean
Summary of the method: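 Lithium-heparin human whole blood preincubated 2 h at 37° C with 4-fold serially diluted compounds (0.5% DMSO), then stimulated with recombinant human IL-4 ([…]) for 48 h. Eotaxin-3 (CCL26) in supernatant quantified by MSD immunoassay.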

STAT6 = molecular target: T1, STAT6 (Homo sapiens, UniProt P42226); experiment: Stat6 Degrader Assay (HiBiT based, HeLa LgBiT clone 4.14); format: cell-based; conditions: HeLa LgBiT clone 4.14 HiBiT-STAT6, 4-24 h incubation; values given for compounds with >80% Emax; geometric mean; read-out: STAT6 degradation DC50
T1 construct: These cells express endogenous STAT6; host or cells: HeLa LgBiT clone 4.14
T1 sequence (P42226 1-847): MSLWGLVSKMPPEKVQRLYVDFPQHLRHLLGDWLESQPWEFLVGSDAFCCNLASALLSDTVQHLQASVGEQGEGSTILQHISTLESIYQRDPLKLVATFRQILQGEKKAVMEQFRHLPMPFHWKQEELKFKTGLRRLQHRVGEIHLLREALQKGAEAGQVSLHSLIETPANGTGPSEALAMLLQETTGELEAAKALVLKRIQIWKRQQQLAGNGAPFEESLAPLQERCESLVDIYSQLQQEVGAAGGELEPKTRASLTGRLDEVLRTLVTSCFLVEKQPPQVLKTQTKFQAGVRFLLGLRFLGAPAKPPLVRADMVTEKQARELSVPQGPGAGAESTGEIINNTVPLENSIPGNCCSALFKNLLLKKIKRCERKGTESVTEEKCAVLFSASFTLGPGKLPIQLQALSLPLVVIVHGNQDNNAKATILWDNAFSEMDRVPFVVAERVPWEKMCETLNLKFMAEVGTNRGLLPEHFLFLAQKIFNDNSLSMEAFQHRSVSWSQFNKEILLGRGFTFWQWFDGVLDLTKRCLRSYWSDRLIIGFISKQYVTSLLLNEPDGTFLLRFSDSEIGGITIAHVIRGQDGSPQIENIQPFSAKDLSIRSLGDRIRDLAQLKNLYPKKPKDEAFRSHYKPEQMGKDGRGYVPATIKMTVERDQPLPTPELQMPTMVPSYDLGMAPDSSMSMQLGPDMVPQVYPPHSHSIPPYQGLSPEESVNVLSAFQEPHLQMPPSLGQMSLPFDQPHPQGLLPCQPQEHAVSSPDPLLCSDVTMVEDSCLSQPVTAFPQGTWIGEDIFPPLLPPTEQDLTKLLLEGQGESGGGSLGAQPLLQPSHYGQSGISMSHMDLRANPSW
Summary of the method: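 HeLa LgBiT clone 4.14 cells with CRISPR HiBiT-tagged endogenous STAT6, 5000 cells/well, compound dosed then incubated 4-24 h at 37° C, 5% CO2. Nano-Glo substrate added, 0.5 h, luminescence read as non-degraded STAT6. Terfenadine 50 μM (cell kill) defines 100% degradation.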

Row | Compound | EC50 [1] [nM] | DC50 (STAT6) [nM]
1 | CNc1cc(=O)n(-c2ccnc3c2cc([C@H](C)N2CC=C(c4c(C)cc(C(=O)N(C)c5ccc(N6CCC(O)(Cc7ccc8c(c7)C7(CC7)C(=O)N8C7CCC(=O)NC7=O)CC6)nc5)cc4F)CC2)n3C)cc1F (stereo partly drawn) [Example 3u240, N-(6-(4-((1′-(2,6-dioxopiperidin-3-yl)-2′-oxospiro[cyclopropane-1,3′-indolin]-5′-yl)methyl)-4-hydroxypiperidin-1-yl)pyridin-3-yl)-3-fluoro-4-(1-((S)-1-(4-(5-fluoro-4-(methylamino)-2-oxopyridin-1 (2H)-yl)-1-methyl-1H-pyrrolo[2,3-b]pyridin-2-yl)ethyl)-1,2,3,6-tetrahydropyridin-4-yl)-N,5-dimethylbenzamide] | 1.3 | 1.1
2 | CNc1ccn(-c2ccnc3c2cc([C@H](C)N2CCC(c4c(C)cc(C(=O)N(C)c5ccc(C6CCN(Cc7ccc8c(c7)n(C)c(=O)n8C7CCC(=O)NC7=O)CC6)cc5)cc4F)CC2)n3C)c(=O)c1 (stereo partly drawn) [Example 3u249, N-(4-(1-((1-(2,6-dioxopiperidin-3-yl)-3-methyl-2-oxo-2,3-dihydro-1H-benzo[d]-imidazol-5-yl)methyl)piperidin-4-yl)phenyl)-3-fluoro-N,5-dimethyl-4-(1-((S)-1-(1-methyl-4-(4-(methyl-amino)-2-oxopyridin-1 (2H)-yl)-1H-pyrrolo[2,3-b]pyridin-2-yl)ethyl)piperidin-4-yl)benzamide] | 1.4 | 0.6
3 | C[C@H]1CN(Cc2ccc3c(c2)n(C)c(=O)n3C2CCC(=O)NC2=O)CCN1CC1CCN(C(=O)c2ccc(C3CCN([C@@H](C)c4cc5c(-n6ccc7c(c6=O)CCN7)ccnc5n4C)CC3)cc2)CC1 (stereo partly drawn) [Example 3e44, 3-(3-methyl-5-(((S)-3-methyl-4-((1-(4-(1-((S)-1-(1-methyl-4-(4-oxo-1,2,3,4-tetrahydro-5H-pyrrolo[3,2-c]pyridin-5-yl)-1H-pyrrolo[2,3-b]pyridin-2-yl)ethyl)piperidin-4-yl)benzoyl)piperidin-4-yl)methyl)piperazin-1-yl)methyl)-2-oxo-2,3-dihydro-1H-benzo[d]imidazol-1-yl)piperidine-2,6-dione] | 0.3 | 0.7
4 | CNc1ccn(-c2ccnc3c2cc(CN2CC=C(c4c(F)cc(C(=O)N5CCC(CN6CCN(Cc7ccc8c(c7)n(C)c(=O)n8C7CCC(=O)NC7=O)C[C@@H]6C)CC5)cc4F)CC2)n3C)c(=O)c1 (stereo partly drawn) [Example 3u1, 3-(5-(((S)-4-((1-(3,5-difluoro-4-(1-((1-methyl-4-(4-(methylamino)-2-oxopyridin-1 (2H)-yl)-1H-pyrrolo[2,3-b]pyridin-2-yl)methyl)-1,2,3,6-tetrahydropyridin-4-yl)benzoyl)piperidin-4-yl)methyl)-3-methylpiperazin-1-yl)methyl)-3-methyl-2-oxo-2,3-dihydro-1H-benzo[d]imidazol-1-yl)piperidine-2,6-dione] | 1 | 0.9
5 | CNc1cc(=O)n(-c2ccnc3c2cc([C@H](C)N2CC=C(c4c(C)cc(C(=O)N5CCC(CN6CCN(c7ccc8c(c7)C7(CC7)C(=O)N8C7CCC(=O)NC7=O)C[C@H]6C)CC5)cc4F)CC2)n3C)cc1F (stereo partly drawn) [Example 3u295, 3-(5′-((R)-4-((1-(3-fluoro-4-(1-((S)-1-(4-(5-fluoro-4-(methylamino)-2-oxopyridin-1 (2H)-yl)-1-methyl-1H-pyrrolo[2,3-b]pyridin-2-yl)ethyl)-1,2,3,6-tetrahydropyridin-4-yl)-5-methylbenzoyl)piperidin-4-yl)methyl)-3-methylpiperazin-1-yl)-2′-oxospiro[cyclopropane-1,3′-indolin]-1′-yl)piperidine-2,6-dione] | 18.9 | 4.5
6 | CNc1cc(=O)n(-c2ccnc3c2cc([C@H](C)N2CC=C(c4c(F)cc(C(=O)N5CCC(CN6CCN(Cc7ccc8c(c7)C(C)(C)C(=O)N8C7CCC(=O)NC7=O)C[C@@H]6C)CC5)cc4F)CC2)n3C)cc1F (stereo partly drawn) [Example 3u9, 3-(5-(((S)-4-((1-(3,5-difluoro-4-(1-((S)-1-(4-(5-fluoro-4-(methylamino)-2-oxopyridin-1 (2H)-yl)-1-methyl-1H-pyrrolo[2,3-b]pyridin-2-yl)ethyl)-1,2,3,6-tetrahydropyridin-4-yl)benzoyl)-piperidin-4-yl)methyl)-3-methylpiperazin-1-yl)methyl)-3,3-dimethyl-2-oxoindolin-1-yl)piperidine-2,6-dione] | 4.9 | 3.8
7 | CNc1ccn(-c2ccnc3c2cc([C@H](C)N2CCC(c4c(C)cc(C(=O)N5CCC(CN6CCN(Cc7ccc8c(c7)n(C7CC7)c(=O)n8[C@@H]7CCC(=O)NC7=O)C[C@@H]6C)CC5)cc4F)CC2)n3C)c(=O)c1 (single isomer, unassigned) [Example 3u199] | 2.7 | 1.1
8 | CNc1ccn(-c2ccnc3c2cc([C@H](C)N2CC=C(c4c(C)cc(C(=O)N(C)C5CCC(N6CCN(Cc7ccc8c(c7)n(C)c(=O)n8C7CCC(=O)NC7=O)CC6)CC5)cc4F)CC2)n3C)c(=O)c1 (stereo partly drawn) [Example 3u238, N-(4-(4-((1-(2,6-dioxopiperidin-3-yl)-3-methyl-2-oxo-2,3-dihydro-1H-benzo[d]-imidazol-5-yl)methyl)piperazin-1-yl)cyclohexyl)-3-fluoro-N,5-dimethyl-4-(1-((S)-1-(1-methyl-4-(4-(methylamino)-2-oxopyridin-1 (2H)-yl)-1H-pyrrolo[2,3-b]pyridin-2-yl)ethyl)-1,2,3,6-tetrahydropyridin-4-yl)benzamide] | 3.2 | 1.4
9 | CNc1ccn(-c2ccnc3c2cc([C@H](C)N2CC=C(c4c(C)cc(C(=O)N5CCC(CN6CCN(Cc7cc8c(cc7F)n([C@H]7CCC(=O)NC7=O)c(=O)n8C)CC6)CC5)cc4F)CC2)n3C)c(=O)c1 (single isomer, unassigned) [Example 3u11] | 0.2 | 0.5
10 | CNc1cc(=O)n(-c2ccnc3c2cc(CN2CCC(c4c(F)cc(C(=O)N5CCC(CN6CCN(Cc7ccc8c(c7)C7(CC7)C(=O)N8[C@H]7CCC(=O)NC7=O)C[C@@H]6C)CC5)cc4F)CC2)n3C)cc1F (single isomer, unassigned) [Example 3u220] | 2.4 | 1.3
11 | Cc1cc(C(=O)N2CCC(CN3CCN(Cc4ccc5c(c4)C(C)(C)C(=O)N5[C@@H]4CCC(=O)NC4=O)C[C@@H]3C)CC2)cc(F)c1C1=CCN([C@@H](C)c2cc3c(-n4cc(F)c(N)cc4=O)ccnc3n2C)CC1 (single isomer, unassigned) [Example 3u171] | 15.4 | 3.5
12 | CNc1ccn(-c2ccnc3c2cc([C@H](C)N2CC=C(c4c(C)cc(C(=O)N5CCC(CN6CCN(c7ccc8c(c7)C(C)(C)C(=O)N8C7CCC(=O)NC7=O)CC6)CC5)cc4F)CC2)n3C)c(=O)c1 (stereo partly drawn) [Example 3u304, 3-(5-(4-((1-(3-fluoro-5-methyl-4-(1-((S)-1-(1-methyl-4-(4-(methylamino)-2-oxopyridin-1 (2H)-yl)-1H-pyrrolo[2,3-b]pyridin-2-yl)ethyl)-1,2,3,6-tetrahydropyridin-4-yl)benzoyl)piperidin-4-yl)methyl)piperazin-1-yl)-3,3-dimethyl-2-oxoindolin-1-yl)piperidine-2,6-dione] | 10.8 | 6.5
